This is an account of results in patent US9963696B2, “Method for screening mutant microorganism overproducing target metabolite using synthetic suicide genetic circuit” (Korea University Research and Business Foundation, priority 2014, dated 2018).

The test system of one experiment is FMN ribozyme. The experiment can be described thus: growth of yeast carrying the FMN suicide riboswitch with added or intracellularly produced FMN. Type of experiment: cell-based, Saccharomyces cerevisiae. The source says:
Using the same method as described in Example 1-1, a FMN ribozyme (Proc. Natl. Acad. Sci. USA Vol. 96, pp. 3584-3589, March 1999, “Engineering precision RNA molecular switches”)
Biochemistry was inserted into the 3′ UTR of the FCY1 gene (NC_001148.4). In order to examine whether the suicide riboswitch operates properly, an experiment for examining whether the growth rate of cells having the suicide riboswitch introduced therein changes depending on the concentration of FMN in the cells was performed.
Specifically, FMN was externally added to the culture medium.
In addition, the FMN1 gene was cloned into a p413GPD plasmid, which was then transformed into a strain having the FMN suicide riboswitch introduced therein so that FMN was produced in the cells. Also, the cells were treated with fluorocytosine. […] In addition, it could be seen that the absorbance at 660 nm was high due to the production of FMN (FIG. 6c).

For the next experiment, the system named is glmS ribozyme. The experiment can be described thus: growth of yeast carrying the glmS suicide riboswitch with externally added GlcN in the presence of fluorocytosine. Type of experiment: cell-based, Saccharomyces cerevisiae. From the text: The gene fragment to be inserted was transformed into Saccharomyces cerevisiae BY4742. In order to examine whether the suicide riboswitch was inserted into the gene of the yeast, a colony selected on an SD-URA medium (2% glucose, 0.67% yeast nitrogen base without amino acids, 0.77 g/L CSM-URA dropout mixture) plate was selected. As a result, it could be seen that the glmS ribozyme was inserted into the 3′UTR (untranslated region) of FCY1 locus in the BY4742 strain.
In addition, in order to examine whether the suicide riboswitch operates properly, whether the growth rate of cells having the suicide riboswitch introduced therein changes depending on the concentration of GlcN6P in the cells was examined. In the presence of fluorocytosine, glucosamine (GlcN) was externally added to the culture medium so that it was converted to GlcN6P by intracellular hexokinase.
A BY4742 FGU strain and other strains, which have a suicide riboswitch introduced therein, were cultured in minimal media. For culture of BY4742 FGU, SD-URA medium supplemented with 5 mg/L of fluorocytosine was used. At 2 days after seeding, absorbance was used. To screen the GFA1 mutant library, medium supplemented with 10 mg/L of fluorocytosine was used, and to screen the HAD phosphatase library, medium supplemented with 20 mg/L of fluorocytosine was used (FIG. 2c).

Setting [1] is: FMN produced in the cells from FMN1 on p413GPD plasmid, treated with fluorocytosine.

Each structure is given as a SMILES string.

For the molecule `Cc1cc2nc3c(=O)[nH]c(=O)nc-3n(C[C@H](O)[C@H](O)[C@H](O)COP(=O)(O)O)c2cc1C` [FMN, flavin mononucleotide], the absorbance entry with FMN ribozyme (FMN externally added to culture medium, increasing concentration) is “the absorbance also increased”. Also, in the experiment with FMN ribozyme (setting [1]), the “absorbance at 660 nm” value was “high” and the “growth rate of the cells” value was “the growth rate of the cells was high”.

Turning to `N[C@H]1C(O)O[C@H](CO)[C@@H](O)[C@@H]1O` (some centres unmarked) [GlcN, glucosamine], in the experiment on glmS ribozyme (GlcN externally added to culture medium, in the presence of fluorocytosine, increasing GlcN6P concentration), the “growth rate of cells having the suicide riboswitch” value was “the growth rate of the cells increased”. Moreover, the “absorbance at 660 nm” value in the experiment on glmS ribozyme (various concentrations of added GlcN) is “changed depending on the concentration of GlcN”.
